Read-outs that look alike come from different tables or passages of the source.
Legend:
[1] = tested on: non-expressing oocytes; assay: cells; type: cell-based, Xenopus laevis; details: non-expressing oocytes, total [3H]CQ transport, normalised to the oocyte type control
In short: (§1)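 PfCRT-expressing and control oocytes: ND96 pH 5.5 → 1.5 h at 27.5 °C → ice-cold ND96 wash → 10% SDS lysis → scintillation count.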

[2] = molecular target: T1, PfCRT^3D7 (Plasmodium falciparum, UniProt Q8IBZ9); assay: cell-based; type: cell-based; details: PfCRT3D7 oocytes, total [3H]CQ transport, normalised to the oocyte type control
In short: as §1

[3] = molecular target: T2, PfCRT^Dd2 (Plasmodium falciparum, UniProt Q9N623, A220S/I356T/K76T/M74I/N326S/N75E/Q271E/R371I); assay: [3H]CQ uptake into Xenopus oocytes, cis-inhibition by unlabelled solute; type: cell-based; details: PfCRTDd2 oocytes, background [3H]CQ accumulation subtracted, normalised to oocyte type control
In short: as §1

[4] = molecular target: T3, PfCRT^Ecu1110 (Plasmodium falciparum, UniProt Q9N623, A220S/I356L/K76T/N326D); assay: as above; type: cell-based; details: for Uptake of [3H]CQ (% PfCRTEcu1110 control), cis-inhibition / PfCRT-mediated [3H]CQ transport, cis-inhibition (% PfCRTEcu1110 control): PfCRTEcu1110 oocytes; for Uptake of [3H]CQ (% PfCRTEcu1110 control), cis-inhibition: total [3H]CQ transport, normalised to the oocyte type control; for PfCRT-mediated [3H]CQ transport, cis-inhibition (% PfCRTEcu1110 control): background [3H]CQ accumulation subtracted, normalised to oocyte type control; for [3H]CQ transport (% PfCRTEcu1110 control), cis-inhibition, PfCRTEcu1110: PfCRT-mediated component (background subtracted), sheet title says normalised to PfCRTDd2 control, mean ± SEM, SEM
In short: as §1

[5] = tested on: non-expressing oocytes; type: cell-based, Xenopus laevis; details: non-expressing oocytes, total [3H]CQ transport, normalised to the oocyte type control
In short: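 Oocytes (ten per treatment, ≥4 independent frogs/days) were preloaded by injecting VF-6 in 25 nL ND96 at pH 5.0, 5.5, 6.0 or 7.0, or Na^+-free choline buffer, then uptake run 1.5 h, 27.5 °C, ND96 pH 5.5 by default. Internal concentrations assumed ~400 nL oocyte volume.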

[6] = molecular target: T1, PfCRT^3D7; assay: cell-based; type: cell-based; details: PfCRT3D7 oocytes; for Uptake of [3H]CQ (% PfCRT3D7 control), trans-stimulation: total [3H]CQ transport, normalised to the oocyte type control; for PfCRT-mediated [3H]CQ transport, trans-stimulation (% PfCRT3D7 control): normalised to oocyte type control
In short: (§2)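 Transport measured in Xenopus oocytes expressing the transporters, 1.5 h at 27.5 °C in ND96 pH 5.5 unless noted. For trans-stimulation, VF-6 injected in 25 nL ND96 at pH 5.0–7.0 or Na^+-free (choline) buffer; intracellular levels based on ~400 nL oocyte volume. Ten oocytes per treatment, ≥4 experiments.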

[7] = molecular target: T2, PfCRT^Dd2; assay: cell-based; type: cell-based; details: for Uptake of [3H]CQ (% PfCRTDd2 control), trans-stimulation / PfCRT-mediated [3H]CQ transport, trans-stimulation (% PfCRTDd2 control): PfCRTDd2 oocytes; for Uptake of [3H]CQ (% PfCRTDd2 control), trans-stimulation: total [3H]CQ transport, normalised to the oocyte type control; for PfCRT-mediated [3H]CQ transport, trans-stimulation (% PfCRTDd2 control): normalised to oocyte type control; for [3H]CQ transport (% PfCRTDd2 control), trans-stimulation, PfCRTDd2: PfCRT-mediated component (background subtracted), mean ± SEM, SEM
In short: as §2

[8] = molecular target: T3, PfCRT^Ecu1110; assay: cell-based; type: cell-based; details: for Uptake of [3H]CQ (% PfCRTEcu1110 control), trans-stimulation / PfCRT-mediated [3H]CQ transport, trans-stimulation (% PfCRTEcu1110 control): PfCRTEcu1110 oocytes; for Uptake of [3H]CQ (% PfCRTEcu1110 control), trans-stimulation: total [3H]CQ transport, normalised to the oocyte type control; for PfCRT-mediated [3H]CQ transport, trans-stimulation (% PfCRTEcu1110 control): normalised to oocyte type control; for [3H]CQ transport (% PfCRTDd2 control), trans-stimulation, PfCRTEcu1110: PfCRT-mediated component (background subtracted), sheet title says normalised to PfCRTDd2 control, mean ± SEM, SEM
In short: as §2

[9] = molecular target: T4, PfNT1 (Plasmodium falciparum, UniProt Q8IDM6); assay: cell-based; type: cell-based; details: PfNT1 oocytes, total [3H]CQ transport, normalised to the oocyte type control
T4 construct: expressed in transfected cells; host or cells: Xenopus laevis oocytes (stage V-VI), cRNA-injected
In short: as §2

[10] = [test solute]i = 45 mM (30 mM for some solutes due to solubility)
[11] = [test solute]i = 5 mM (intracellular)
[12] = [test solute]i = 45 mM (intracellular; 30 mM for some solutes due to solubility)
[13] = [test solute]i = 5 mM (injected)

T2 sequence (Q9N623 whole entry A220S/I356T/K76T/M74I/N326S/N75E/Q271E/R371I): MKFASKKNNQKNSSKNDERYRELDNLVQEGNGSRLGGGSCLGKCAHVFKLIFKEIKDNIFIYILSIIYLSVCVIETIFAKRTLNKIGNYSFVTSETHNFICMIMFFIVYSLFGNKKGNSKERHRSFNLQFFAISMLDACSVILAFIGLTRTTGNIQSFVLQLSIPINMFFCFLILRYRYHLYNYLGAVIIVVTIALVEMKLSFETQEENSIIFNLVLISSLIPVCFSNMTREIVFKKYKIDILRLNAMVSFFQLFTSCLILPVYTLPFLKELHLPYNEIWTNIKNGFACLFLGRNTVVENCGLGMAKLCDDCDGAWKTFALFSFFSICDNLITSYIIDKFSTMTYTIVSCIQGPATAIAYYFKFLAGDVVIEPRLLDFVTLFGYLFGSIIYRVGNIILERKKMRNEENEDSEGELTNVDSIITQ
T1 sequence (Q8IBZ9 59-398): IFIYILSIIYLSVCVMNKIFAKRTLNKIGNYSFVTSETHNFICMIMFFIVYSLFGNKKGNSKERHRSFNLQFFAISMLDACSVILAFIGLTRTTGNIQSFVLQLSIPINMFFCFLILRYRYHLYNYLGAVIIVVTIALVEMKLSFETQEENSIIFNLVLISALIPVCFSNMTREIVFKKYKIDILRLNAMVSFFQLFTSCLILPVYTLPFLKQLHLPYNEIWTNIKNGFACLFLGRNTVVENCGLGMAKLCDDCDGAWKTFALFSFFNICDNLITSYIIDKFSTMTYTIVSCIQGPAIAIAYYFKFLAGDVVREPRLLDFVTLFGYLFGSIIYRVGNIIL
T3 sequence (Q9N623 whole entry A220S/I356L/K76T/N326D): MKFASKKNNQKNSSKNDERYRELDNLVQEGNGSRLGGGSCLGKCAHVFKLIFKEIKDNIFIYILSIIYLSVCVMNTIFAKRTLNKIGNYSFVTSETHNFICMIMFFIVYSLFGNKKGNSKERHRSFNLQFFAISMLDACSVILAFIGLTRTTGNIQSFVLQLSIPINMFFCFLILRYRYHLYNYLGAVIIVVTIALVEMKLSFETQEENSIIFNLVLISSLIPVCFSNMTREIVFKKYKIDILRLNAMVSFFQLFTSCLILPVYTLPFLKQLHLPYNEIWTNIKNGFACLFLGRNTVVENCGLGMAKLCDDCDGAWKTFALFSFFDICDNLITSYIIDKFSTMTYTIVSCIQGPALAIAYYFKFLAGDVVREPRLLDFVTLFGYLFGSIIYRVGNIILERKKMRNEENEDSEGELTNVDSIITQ
T4 sequence (Q8IDM6 whole entry): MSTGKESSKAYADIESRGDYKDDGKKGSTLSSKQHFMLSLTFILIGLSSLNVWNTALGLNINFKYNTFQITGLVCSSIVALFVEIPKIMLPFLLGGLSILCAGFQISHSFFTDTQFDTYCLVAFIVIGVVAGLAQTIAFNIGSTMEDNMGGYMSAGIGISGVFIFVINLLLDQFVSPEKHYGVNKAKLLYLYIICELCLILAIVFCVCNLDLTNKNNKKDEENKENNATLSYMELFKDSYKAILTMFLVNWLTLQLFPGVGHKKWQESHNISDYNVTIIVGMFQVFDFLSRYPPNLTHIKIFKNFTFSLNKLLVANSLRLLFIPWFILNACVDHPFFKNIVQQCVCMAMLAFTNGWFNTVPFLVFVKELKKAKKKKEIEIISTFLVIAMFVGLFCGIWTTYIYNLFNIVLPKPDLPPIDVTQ

Substance: PNAL [PL-4, host-derived peptide]
- Uptake of [3H]CQ (% non-expressing oocyte control), cis-inhibition ([1]; [test solute] = 1 mM): 100 ± 4.7 % non-expressing oocyte control
- Uptake of [3H]CQ (% non-expressing oocyte control), cis-inhibition ([1]; [test solute] = 2 mM): 99 ± 3.6 % non-expressing oocyte control
- Uptake of [3H]CQ (% PfCRT3D7 control), cis-inhibition ([2]; [test solute] = 0.5 mM): 99 ± 5.3 % PfCRT3D7 control
- Uptake of [3H]CQ (% PfCRT3D7 control), cis-inhibition ([2]; [test solute] = 1 mM): 98 ± 5.7 % PfCRT3D7 control
- Uptake of [3H]CQ (% PfCRT3D7 control), cis-inhibition ([2]; [test solute] = 2 mM): 101 ± 6.3 % PfCRT3D7 control
- PfCRT-mediated [3H]CQ transport, cis-inhibition (% PfCRTDd2 control) ([3]; [test solute] = 0.5 mM): 68 ± 2.6 % PfCRTDd2 control
- PfCRT-mediated [3H]CQ transport, cis-inhibition (% PfCRTDd2 control) ([3]; [test solute] = 1 mM): 55 ± 4.1 % PfCRTDd2 control
- PfCRT-mediated [3H]CQ transport, cis-inhibition (% PfCRTDd2 control) ([3]; [test solute] = 2 mM): 39 ± 1.8 % PfCRTDd2 control
- Uptake of [3H]CQ (% PfCRTEcu1110 control), cis-inhibition ([4]; [test solute] = 0.5 mM): 66 ± 2.9 % PfCRTEcu1110 control
- Uptake of [3H]CQ (% PfCRTEcu1110 control), cis-inhibition ([4]; [test solute] = 1 mM): 57 ± 2.7 % PfCRTEcu1110 control
- Uptake of [3H]CQ (% PfCRTEcu1110 control), cis-inhibition ([4]; [test solute] = 2 mM): 45 ± 2.4 % PfCRTEcu1110 control
- PfCRT-mediated [3H]CQ transport, cis-inhibition (% PfCRTEcu1110 control) ([4]; [test solute] = 0.5 mM): 58 ± 0.5 % PfCRTEcu1110 control
- PfCRT-mediated [3H]CQ transport, cis-inhibition (% PfCRTEcu1110 control) ([4]; [test solute] = 1 mM): 52 ± 2.6 % PfCRTEcu1110 control
- PfCRT-mediated [3H]CQ transport, cis-inhibition (% PfCRTEcu1110 control) ([4]; [test solute] = 2 mM): 39 ± 2.1 % PfCRTEcu1110 control
- [3H]CQ transport (% PfCRTEcu1110 control), cis-inhibition, PfCRTEcu1110 ([4]; [test solute] = 0.5 mM): 18 ± 0.2 % PfCRTEcu1110 control
- [3H]CQ transport (% PfCRTEcu1110 control), cis-inhibition, PfCRTEcu1110 ([4]; [test solute] = 1 mM): 16 ± 0.1 % PfCRTEcu1110 control
- [3H]CQ transport (% PfCRTEcu1110 control), cis-inhibition, PfCRTEcu1110 ([4]; [test solute] = 2 mM): 12 ± 0.3 % PfCRTEcu1110 control
- Uptake of [3H]CQ (% non-expressing oocyte control), trans-stimulation ([5]; [test solute]i = 5 mM): 100 ± 3.8 % non-expressing oocyte control
- Uptake of [3H]CQ (% non-expressing oocyte control), trans-stimulation [5, 10]: 99 ± 3.7 % non-expressing oocyte control
- Uptake of [3H]CQ (% PfCRT3D7 control), trans-stimulation ([6]; [test solute]i = 5 mM): 100 ± 2.2 % PfCRT3D7 control
- Uptake of [3H]CQ (% PfCRT3D7 control), trans-stimulation [6, 10]: 101 ± 2.1 % PfCRT3D7 control
- PfCRT-mediated [3H]CQ transport, trans-stimulation (% PfCRT3D7 control) [6, 11]: 98 ± 4.3 % PfCRT3D7 control
- PfCRT-mediated [3H]CQ transport, trans-stimulation (% PfCRT3D7 control) [6, 12]: 99 ± 3.4 % PfCRT3D7 control
- Uptake of [3H]CQ (% PfCRTDd2 control), trans-stimulation ([7]; [test solute]i = 5 mM): 99 ± 3.4 % PfCRTDd2 control
- Uptake of [3H]CQ (% PfCRTDd2 control), trans-stimulation [7, 10]: 97 ± 4.3 % PfCRTDd2 control
- PfCRT-mediated [3H]CQ transport, trans-stimulation (% PfCRTDd2 control) [7, 11]: 97 ± 2.1 % PfCRTDd2 control
- PfCRT-mediated [3H]CQ transport, trans-stimulation (% PfCRTDd2 control) [7, 12]: 95 ± 3.8 % PfCRTDd2 control
- [3H]CQ transport (% PfCRTDd2 control), trans-stimulation, PfCRTDd2 [7, 13]: 97 ± 2.1 % PfCRTDd2 control
- [3H]CQ transport (% PfCRTDd2 control), trans-stimulation, PfCRTDd2 [7, 10]: 95 ± 3.8 % PfCRTDd2 control
- Uptake of [3H]CQ (% PfCRTEcu1110 control), trans-stimulation ([8]; [test solute]i = 5 mM): 99 ± 3.3 % PfCRTEcu1110 control
- Uptake of [3H]CQ (% PfCRTEcu1110 control), trans-stimulation [8, 10]: 100 ± 2.2 % PfCRTEcu1110 control
- PfCRT-mediated [3H]CQ transport, trans-stimulation (% PfCRTEcu1110 control) [8, 11]: 97 ± 4.9 % PfCRTEcu1110 control
- PfCRT-mediated [3H]CQ transport, trans-stimulation (% PfCRTEcu1110 control) [8, 12]: 98 ± 3.0 % PfCRTEcu1110 control
- [3H]CQ transport (% PfCRTDd2 control), trans-stimulation, PfCRTEcu1110 [8, 13]: 29 ± 1.7 % PfCRTEcu1110 control
- [3H]CQ transport (% PfCRTDd2 control), trans-stimulation, PfCRTEcu1110 [8, 10]: 30 ± 1.4 % PfCRTEcu1110 control
- Uptake of [3H]CQ (% PfNT1 control), trans-stimulation ([9]; [test solute]i = 5 mM): 99 ± 3.2 % PfNT1 control
- Uptake of [3H]CQ (% PfNT1 control), trans-stimulation [9, 10]: 100 ± 2.4 % PfNT1 control

— PMC7413254 (Nature Communications, 2020)
